The results in this text go back to publication PMC6272192, “Synthesis and Biological Evaluation of N-Alkyl-3-(alkylamino)-pyrazine-2-carboxamides” (Molecules, 2015).

pIC50: −log10 of the molar value. Values after ≈ are worked out from the molar mass of the structure shown.

For the first data set, the system named is M. tuberculosis H37Rv. The data set can be described thus: in vitro antimycobacterial activity, microdilution panel method. Particulars: Middlebrook 7H9, Alamar Blue after 14 days. In kind it is cell-based, Mycobacterium tuberculosis.
With `CCCCCNc1nccnc1C(=O)NCC` [Compound 21, N-Ethyl-3-(pentylamino)pyrazine-2-carboxamide], the “MIC M. tuberculosis” value is listed as 50 µg/mL (≈ 212 µM).

Turning to `NNC(=O)c1ccncc1` [INH, Isoniazid, reference compound], the “MIC M. tuberculosis” value lay within 0.1 to 0.39 µg/mL.

For the compound `CCCCCCNc1nccnc1C(=O)NC` [Compound 14, 3-(Hexylamino)-N-methylpyrazine-2-carboxamide], the “MIC M. tuberculosis” value is given as 25 µg/mL (≈ 106 µM).

Still in this data set, the particulars now being: Mycobacterium tuberculosis, 336 h, Middlebrook 7H9, Alamar Blue after 14 days, read-out: MIC M. tuberculosis.
In the case of `CCCCCCCNC(=O)c1nccnc1Cl` [Compound 7, 3-Chloro-N-heptylpyrazine-2-carboxamide], the minimum inhibitory concentration (MIC) is 100 µg/mL.

With `CCCCCCCNC(=O)c1nccnc1NCCCCCCC` [Compound 29, N-Heptyl-3-(heptylamino)pyrazine-2-carboxamide], the MIC was above 100 µg/mL.

Consider `CCCCCCNc1nccnc1C(=O)NCC` [Compound 22, N-Ethyl-3-(hexylamino)pyrazine-2-carboxamide], for which the minimal inhibitory concentration (MIC) came out at 50 µg/mL.

Regarding `CCCNC(=O)c1nccnc1Cl` [Compound 3, 3-Chloro-N-propylpyrazine-2-carboxamide], the MIC was above 100 µg/mL.

As for `CCCCCNc1nccnc1C(=O)NCC` [Compound 21, N-Ethyl-3-(pentylamino)pyrazine-2-carboxamide], the MIC was determined as 50 µg/mL.

`CCCCNC(=O)c1nccnc1Cl` [Compound 4, N-Butyl-3-chloropyrazine-2-carboxamide]: the MIC is above 100 µg/mL.

For the compound `CCCCCNC(=O)c1nccnc1Cl` [Compound 5, 3-Chloro-N-pentylpyrazine-2-carboxamide], the MIC is above 100 µg/mL.

For the compound `CCCCCCCCNC(=O)c1nccnc1Cl` [Compound 8, 3-Chloro-N-octylpyrazine-2-carboxamide], the minimum inhibitory concentration (MIC) was found to be 50 µg/mL.

For the compound `CCCNc1nccnc1C(=O)NCC` [Compound 19, N-Ethyl-3-(propylamino)pyrazine-2-carboxamide], the minimal inhibitory concentration (MIC) was above 100 µg/mL.

As for `CNC(=O)c1nccnc1NC` [Compound 9, N-Methyl-3-(methylamino)pyrazine-2-carboxamide], the MIC is above 100 µg/mL.

On to `CNC(=O)c1nccnc1Cl` [Compound 1, 3-Chloro-N-methylpyrazine-2-carboxamide], for which the MIC was above 100 µg/mL.

For `CCNC(=O)c1nccnc1NCC` [Compound 18, N-Ethyl-3-(ethylamino)pyrazine-2-carboxamide], the MIC is above 100 µg/mL.

`NNC(=O)c1ccncc1` [INH, Isoniazid, reference compound]: the MIC lay in the range of 0.1 to 0.39 µg/mL.

Regarding `CCNC(=O)c1nccnc1NC` [Compound 17, N-Ethyl-3-(methylamino)pyrazine-2-carboxamide], the minimal inhibitory concentration (MIC) was above 100 µg/mL.

As to `CCCCCCNc1nccnc1C(=O)NC` [Compound 14, 3-(Hexylamino)-N-methylpyrazine-2-carboxamide], the MIC turned out to be 25 µg/mL.

The same data set, now with this note: Mycobacterium tuberculosis, conversion of the μg/mL value, read-out: MIC M. tuberculosis in molar units.
On to `NNC(=O)c1ccncc1` [INH, Isoniazid, reference compound], for which the MIC lay within 0.7 to 2.9 µM.

System in the next data set: not listed separately
As to the kind of experiment: determination of lipophilicity by HPLC (log k). The settings on record: HPLC capacity factor, C18 column, MeOH 70% / H2O 30%.
Description: Instrumentation: Agilent Technologies 1200 SL liquid chromatograph with Diode-array Detector SL G1315C (Agilent Technologies Inc., Colorado Springs, CO, USA); pre-column ZORBAX XDB-C18 5 μm, 4 × 4 mm, Part No. 7995118-504 (Agilent Technologies Inc.) and column ZORBAX Eclipse XDB-C18 5 μm, 4.6 × 250 mm, Part No. 7995118-585 (Agilent Technologies Inc.). The separation process was controlled by Agilent ChemStation, version B.04.02 extended by spectral module (Agilent Technologies Inc.). Mobile phase consisted of MeOH (HPLC grade, 70%) and H2O (HPLC-Milli-Q Grade, 30%). Conditions: Flow rate 1.0 mL/min, sample injection volume 20 μL, column temperature 30 °C, detection wavelength 210 nm, monitor wavelength 270 nm. Retention times (tR) were measured in minutes. The dead time of the system (tD) was determined as the retention time of KI methanol solution. Capacity factors k for individual compounds were calculated according to the formula k = (tR − tD)/tD. Log k, calculated from the capacity factor k, is used as the lipophilicity index converted to log scale.
The compound `CCCCCCCNC(=O)c1nccnc1Cl` [Compound 7, 3-Chloro-N-heptylpyrazine-2-carboxamide] returned a log k of 0.470.

In turn, `CCCCCCCNC(=O)c1nccnc1NCCCCCCC` [Compound 29, N-Heptyl-3-(heptylamino)pyrazine-2-carboxamide] registered a log k of 2.503.

The compound `CCCCCCNc1nccnc1C(=O)NCC` [Compound 22, N-Ethyl-3-(hexylamino)pyrazine-2-carboxamide] came in with a log k of 1.094.

Turning to `CCCNC(=O)c1nccnc1Cl` [Compound 3, 3-Chloro-N-propylpyrazine-2-carboxamide], the log k was −0.414.

Take `CCCCCNc1nccnc1C(=O)NCC` [Compound 21, N-Ethyl-3-(pentylamino)pyrazine-2-carboxamide]: the log k was found to be 0.855.

Turning to `CCCCNC(=O)c1nccnc1Cl` [Compound 4, N-Butyl-3-chloropyrazine-2-carboxamide], the log k was −0.209.

As for `CCCCCNC(=O)c1nccnc1Cl` [Compound 5, 3-Chloro-N-pentylpyrazine-2-carboxamide], the log k was 0.012.

The compound `CCCCCCCCNC(=O)c1nccnc1Cl` [Compound 8, 3-Chloro-N-octylpyrazine-2-carboxamide] gave a log k of 0.702.

The compound `CCCNc1nccnc1C(=O)NCC` [Compound 19, N-Ethyl-3-(propylamino)pyrazine-2-carboxamide] came in with a log k of 0.382.

For `CNC(=O)c1nccnc1NC` [Compound 9, N-Methyl-3-(methylamino)pyrazine-2-carboxamide], the log k is listed as −0.279.

The compound `CNC(=O)c1nccnc1Cl` [Compound 1, 3-Chloro-N-methylpyrazine-2-carboxamide] yielded a log k of −0.747.

The compound `CCNC(=O)c1nccnc1NCC` [Compound 18, N-Ethyl-3-(ethylamino)pyrazine-2-carboxamide] had a log k of 0.163.

`CCNC(=O)c1nccnc1NC` [Compound 17, N-Ethyl-3-(methylamino)pyrazine-2-carboxamide] displayed a log k of −0.063.

`CCCCCCNc1nccnc1C(=O)NC` [Compound 14, 3-(Hexylamino)-N-methylpyrazine-2-carboxamide] registered a log k of 0.876.

The test system of the next data set is Trichophyton mentagrophytes. The data set can be described thus: in vitro antifungal activity, microdilution broth method. The class given is cell-based.
Settings: not given
The method, then: Antifungal evaluation was performed using microdilution broth method against 8 fungal strains (Candida albicans ATCC 44859, C. tropicalis 156, C. krusei E28, C. glabrata 20/I, Trichosporon asahii 1188, Aspergillus fumigates 231, Absidia corymbifera 272 and Trichophyton mentagrophytes 445). Compounds were dissolved in DMSO and diluted in a twofold manner with RPMI 1640 medium with glutamine buffered to pH 7.0 (3-morpholinopropane-1-sulfonic acid). […] Static incubation was performed in the dark and humid, at 35 °C for 24 and 48 h (respectively 72 and 120 h for Trichophyton mentagrophytes). The MIC was defined as 80% inhibition of control (50% IC for filament fungi). Drug-free controls were included. The standards were amphotericin B, voriconazole, nystatin and fluconazole.
In the case of `CCCCCCCCNC(=O)c1nccnc1Cl` [Compound 8, 3-Chloro-N-octylpyrazine-2-carboxamide], the “MIC Trichophyton mentagrophytes” value was 62.5 µM (≈ 16.9 µg/mL).

Staying with this data set, now noted: Trichophyton mentagrophytes.
Take `CCCCCCCNC(=O)c1nccnc1Cl` [Compound 7, 3-Chloro-N-heptylpyrazine-2-carboxamide]: the MIC stood at 125 µM (≈ 32 µg/mL).

With `CCCCCCNc1nccnc1C(=O)NCC` [Compound 22, N-Ethyl-3-(hexylamino)pyrazine-2-carboxamide], 125 µM (≈ 31.3 µg/mL) was the least that counted as inhibitory (MIC).

Compound `CCCCCNc1nccnc1C(=O)NCC` [Compound 21, N-Ethyl-3-(pentylamino)pyrazine-2-carboxamide] registered a minimum inhibitory concentration (MIC) of 250 µM (≈ 59.1 µg/mL).

`CCCCCCCCNC(=O)c1nccnc1Cl` [Compound 8, 3-Chloro-N-octylpyrazine-2-carboxamide] showed a minimal inhibitory concentration (MIC) of 62.5 µM (≈ 16.9 µg/mL).

The compound `CCCCCCNc1nccnc1C(=O)NC` [Compound 14, 3-(Hexylamino)-N-methylpyrazine-2-carboxamide] showed an MIC of 250 µM (≈ 59.1 µg/mL).

Another data set relates to photosystem 2 photosynthetic electron transport (PET) in spinach chloroplasts. The data set can be described thus: inhibition of photosynthetic electron transport (PET) in spinach chloroplasts (Hill reaction, DCPIP). The class given is biochemical, Spinacia oleracea L. Particulars: ratio to IC50 of 12. How it is done:
Chloroplasts were prepared from spinach (Spinacia oleracea L.) according to Masarovicova and Kralova. The inhibition of photosynthetic electron transport (PET) in spinach chloroplasts was determined spectrophotometrically (Genesys 6, Thermo Electron Scientific Instruments, Madison, WI, USA), using an artificial electron acceptor 2,6-dichlorophenol-indophenol (DCPIP) according to Kralova et al., and the rate of photosynthetic electron transport (PET) was monitored as a photoreduction of DCPIP. The measurements were carried out in phosphate buffer (0.02 mol/L, pH 7.2) containing sucrose (0.4 mol/L), MgCl2 (0.005 mol/L) and NaCl (0.015 mol/L). The chlorophyll content was 30 mg/L in these experiments and the samples were irradiated (~100 W/m^2 with 10 cm distance) with a halogen lamp (250 W) using a 4 cm water filter to prevent warming of the samples (suspension temperature 22 °C). The studied compounds were dissolved in DMSO due to their limited water solubility. […] The inhibitory efficiency of the studied compounds was expressed by IC50 values, i.e., by molar concentration of the compounds causing 50% PET inhibition relative to the untreated control.
For the compound `CCCNc1nccnc1C(=O)NCC` [Compound 19, N-Ethyl-3-(propylamino)pyrazine-2-carboxamide], the “IC50 (PET) fold higher than that of compound 12” value came to 3.9 fold.

The same data set, now with this note: ratio to IC50 of 14.
For the compound `CCCCCNc1nccnc1C(=O)NCC` [Compound 21, N-Ethyl-3-(pentylamino)pyrazine-2-carboxamide], the “IC50 (PET) fold higher than that of compound 14” value amounted to 2.4 fold.

Staying with this data set, now noted: spinach chloroplasts.
Take `CCCNC(=O)c1nccnc1Cl` [Compound 3, 3-Chloro-N-propylpyrazine-2-carboxamide]: the “PET-inhibiting activity (in words)” value was “inactive”.

Consider `CNC(=O)c1nccnc1Cl` [Compound 1, 3-Chloro-N-methylpyrazine-2-carboxamide], for which the “PET-inhibiting activity (in words)” value is “inactive”.

Turning to `CCNC(=O)c1nccnc1NCC` [Compound 18, N-Ethyl-3-(ethylamino)pyrazine-2-carboxamide], the “PET-inhibiting activity (in words)” value was “not active”.

Consider `CCNC(=O)c1nccnc1NC` [Compound 17, N-Ethyl-3-(methylamino)pyrazine-2-carboxamide], for which the “PET-inhibiting activity (in words)” value was “not active”.

Still in this data set, the particulars now being: spinach chloroplasts, DCPIP photoreduction; read-out: IC50 (PET-inhibiting activity).
Turning to `CCCCCCCNC(=O)c1nccnc1Cl` [Compound 7, 3-Chloro-N-heptylpyrazine-2-carboxamide], the pIC50 is 3.59.

On to `CCCCCCCNC(=O)c1nccnc1NCCCCCCC` [Compound 29, N-Heptyl-3-(heptylamino)pyrazine-2-carboxamide], for which the pIC50 is 2.95.

Consider `CCCCCCNc1nccnc1C(=O)NCC` [Compound 22, N-Ethyl-3-(hexylamino)pyrazine-2-carboxamide], for which the negative logarithm of the IC50 (pIC50) was 4.11.

Turning to `CCCCCNc1nccnc1C(=O)NCC` [Compound 21, N-Ethyl-3-(pentylamino)pyrazine-2-carboxamide], the negative logarithm of the IC50 (pIC50) was 3.52.

`CCCCNC(=O)c1nccnc1Cl` [Compound 4, N-Butyl-3-chloropyrazine-2-carboxamide]: the negative-log IC50 (pIC50) was 2.40.

Take `CCCCCNC(=O)c1nccnc1Cl` [Compound 5, 3-Chloro-N-pentylpyrazine-2-carboxamide]: the pIC50 was 2.86.

Consider `CCCCCCCCNC(=O)c1nccnc1Cl` [Compound 8, 3-Chloro-N-octylpyrazine-2-carboxamide], for which the pIC50 was 4.26.

For `CCCNc1nccnc1C(=O)NCC` [Compound 19, N-Ethyl-3-(propylamino)pyrazine-2-carboxamide], the negative-log IC50 (pIC50) was 2.69.

For `CNC(=O)c1nccnc1NC` [Compound 9, N-Methyl-3-(methylamino)pyrazine-2-carboxamide], the pIC50 is 2.25.

For the compound `CCCCCCNc1nccnc1C(=O)NC` [Compound 14, 3-(Hexylamino)-N-methylpyrazine-2-carboxamide], the pIC50 is 3.90.

For another data set, the system named is Staphylococcus epidermidis. The data set can be described thus: in vitro antibacterial activity, microdilution broth method.
Settings: not given
In kind it is cell-based. The method, then: Microdilution broth method. Antibacterial evaluation was performed against bacterial strains from Czech Collection of Microorganisms (Brno, Czech Republic) (Staphylococcus aureus CCM 4516/08, Escherichia coli CCM 4517, Pseudomonas aeruginosa CCM 1961) or clinical isolates from Department of Clinical Microbiology, University Hospital and Faculty of Medicine in Hradec Králové, Charles University in Prague, Czech Republic (Staphylococcus aureus H 5996/08-methicilin resistant (MRSA), Staphylococcus epidermidis H 6966/08, Enterococcus sp. J 14365/08, Klebsiella pneumoniae D 11750/08, Klebsiella pneumoniae J 14368/08-ESBL positive). All strains were subcultured on Mueller-Hinton agar (MHA) (Difco/Becton Dickinson, Detroit, MI, USA) at 35 °C and maintained on the same medium at 4 °C. The compounds were dissolved in DMSO, and the antibacterial activity was determined in Mueller-Hinton liquid broth (Difco/Becton Dickinson), buffered to pH 7.0. Controls consisted of medium and DMSO alone. […] The standards were neomycin, bacitracin, penicillin G, ciprofloxacin and phenoxymethylpenicilin.
As for `CCCNc1nccnc1C(=O)NCC` [Compound 19, N-Ethyl-3-(propylamino)pyrazine-2-carboxamide], the MIC came to 250 µM (≈ 52.1 µg/mL).
